This assay deals with [35S]-TBPS binding, rat brain cortical membranes. Kind of assay: Steroid inhibition of [35S]-TBPS binding. The conditions noted are these: 3 nM [35S]-TBPS, in the presence of 5 mM GABA. Here is the method:
[^35S]-t-Butylbicyclophosphorothionate (TBPS) binding assays using rat brain cortical membranes in the presence of 5 mM GABA has been described (Gee et al, J. Pharmacol. Exp. Ther. 1987, 241, 346-353; Hawkinson et al, Mol. Pharmacol. 1994, 46, 977-985; Lewin, A. H et al., Mol. Pharmacol. 1989, 35, 189-194).
Briefly, cortices are rapidly removed following decapitation of carbon dioxide-anesthetized Sprague-Dawley rats (200-250 g). The cortices are homogenized in 10 volumes of ice-cold 0.32 M sucrose using a glass/teflon homogenizer and centrifuged at 1500×g for 10 min at 4° C. The resultant supernatants are centrifuged at 10,000×g for 20 min at 4° C. to obtain the P2 pellets. The P2 pellets are resuspended in 200 mM NaCl/50 mM Na—K phosphate pH 7.4 buffer and centrifuged at 10,000×g for 10 min at 4° C. This washing procedure is repeated twice and the pellets are resuspended in 10 volumes of buffer. Aliquots ([…]) of the membrane suspensions are incubated with 3 nM [^35S]-TBPS and […] aliquots of test drug dissolved in dimethyl sulfoxide (DMSO) (final 0.5%) in the presence of 5 mM GABA. The incubation is brought to a final volume of 1.0 mL with buffer. Nonspecific binding is determined in the presence of […] and ranged from 15 to 25%. Following a 90 min incubation at room temp, the assays are terminated by filtration through glass fiber filters (Schleicher and Schuell No. 32) using a cell harvester (Brandel) and rinsed three times with ice-cold buffer. Filter bound radioactivity is measured by liquid scintillation spectrometry. Non-linear curve fitting of the overall data for each drug averaged for each concentration is done using Prism (GraphPad). […] The concentration of test compound producing 50% inhibition (IC50) of specific binding and the maximal extent of inhibition (Imax) are determined for the individual experiments with the same model used for the overall data and then the means±SEM.s of the individual experiments are calculated.
Various compounds are or can be screened to determine their potential as modulators of [^35S]-TBPS binding in vitro. These assays are or can be performed in accordance with the above

SMILES strings stand for the structures.

For orientation: IC50 means the concentration needed to halve the response being measured. For `COC[C@@]1(O)CC[C@@]2(C)[C@H](CC[C@@H]3[C@@H]2[C@H](O)C[C@]2(C)[C@@H]([C@H](C)Cn4cc(C#N)cn4)CC[C@@H]32)C1` [Example 282, 1-((S)-2-((3R,5R,8S,9S,10S,11R,13S,14S,17R)-3,11-dihydroxy-3-(methoxymethyl)-10,13-dimethylhexadecahydro-1H-cyclopenta[a]phenanthren-17-yl)propyl)-1H-pyrazole-4-carbonitrile], the IC50 was 100 to 1000 nM. On to `CCOC[C@@]1(O)CC[C@@]2(C)[C@H](CC[C@@H]3[C@@H]2CC[C@]2(C)[C@@H]([C@H](C)N[C@@H](C)c4ccccc4)CC[C@@H]32)C1` [Example 212], for which the half-maximal inhibitory concentration (IC50) is 1000 to 10000 nM. For the compound `CCOC[C@@]1(O)CC[C@H]2[C@H](CC[C@@H]3[C@@H]2CC[C@]2(C)[C@@H]([C@@H](C)Nc4ccc(C#N)nc4)CC[C@@H]32)C1` [Example 261], the half-inhibitory concentration (IC50) lay within 100 to 1000 nM.

`C[C@H](NC(=O)c1cccc(C#N)c1)[C@H]1CC[C@H]2[C@@H]3CC[C@@H]4C[C@](C)(O)CC[C@@H]4[C@H]3CC[C@]12C` [Example 110]: the IC50 is 1000 to 10000 nM.

`CCC[C@@]1(O)CC[C@H]2[C@H](CC[C@@H]3[C@@H]2CC[C@]2(C)[C@@H]([C@H](C)Cn4cc(C#N)cn4)CC[C@@H]32)C1` [Example 66, 1-((S)-2-((3R,5R,8R,9R,10S,13S,14S,17R)-3-hydroxy-13-methyl-3-propylhexadecahydro-1H-cyclopenta[a]phenanthren-17-yl)propyl)-1H-pyrazole-4-carbonitrile]: the IC50 is less than 100 nM. Consider `CC[C@@]1(O)CC[C@H]2[C@H](CC[C@@H]3[C@@H]2CC[C@]2(C)[C@@H]([C@@H](C)Cn4cc(C#N)cn4)CC[C@@H]32)C1` [Example 275, 1-((R)-2-((3R,5R,8R,9R,10S,13S,14S,17R)-3-ethyl-3-hydroxy-13-methylhexadecahydro-1H-cyclopenta[a]phenanthren-17-yl)propyl)-1H-pyrazole-4-carbonitrile], for which the IC50 was less than 100 nM.

`C[C@H](N[C@H](C)[C@H]1CC[C@H]2[C@@H]3CC[C@@H]4C[C@](C)(O)CC[C@@H]4[C@H]3CC[C@]12C)c1ccccc1` [Example 209]: the IC50 lay in the range of 100 to 1000 nM. In the case of `CCC[C@@]1(O)CC[C@@]2(C)[C@H](CC[C@@H]3[C@@H]2[C@H](O)C[C@]2(C)[C@@H]([C@H](C)Cn4cc(C#N)cn4)CC[C@@H]32)C1` [Example 338, 1-((S)-2-((3R,5R,8S,9S,10S,11R,13S,14S,17R)-3,11-dihydroxy-10,13-dimethyl-3-propylhexadecahydro-1H-cyclopenta[a]phenanthren-17-yl)propyl)-1H-pyrazole-4-carbonitrile], the half-maximal inhibitory concentration (IC50) lay within 100 to 1000 nM. Regarding `CCOC[C@@]1(O)CC[C@H]2[C@H](CC[C@@H]3[C@@H]2CC[C@]2(C)[C@@H]([C@@H](C)Cn4ccnn4)CC[C@@H]32)C1` [Example 268, (3R,5R,8R,9R,10S,13S,14S,17R)-17-((R)-1-(1H-1,2,3-triazol-1-yl)propan-2-yl)-3-(ethoxymethyl)-13-methylhexadecahydro-1H-cyclopenta[a]phenanthren-3-ol], the concentration for half-maximal inhibition (IC50) was less than 100 nM.

As for `C[C@@]1(O)CC[C@H]2[C@H](CC[C@@H]3[C@@H]2CC[C@]2(C)[C@@H](CN4CC[C@H](c5ccccc5)C4=O)CC[C@@H]32)C1` [Example 12, (R)-1-(((3R,5R,8R,9R,10S,13S,14S,17S)-3-hydroxy-3,13-dimethylhexadecahydro-1H-cyclopenta[a]phenanthren-17-yl)methyl)-3-phenylpyrrolidin-2-one], the IC50 was less than 100 nM. To `CC[C@H](NCc1ccccc1)[C@H]1CC[C@H]2[C@@H]3CC[C@@H]4C[C@@](O)(COC)CC[C@@H]4[C@H]3CC[C@]12C` [Example 213, (3R,5R,8R,9R,10S,13S,14S,17S)-17-((S)-1-(benzylamino)propyl)-3-(methoxymethyl)-13-methylhexadecahydro-1H-cyclopenta[a]phenanthren-3-ol] belongs 1000 to 10000 nM; to `CCC[C@@]1(O)CC[C@@]2(C)[C@H](CC[C@@H]3[C@@H]2CC[C@]2(C)[C@@H]([C@H](C)Cn4nnnc4C)CC[C@@H]32)C1` [Example 316, (3R,5R,8R,9S,10S,13S,14S,17R)-10,13-dimethyl-17-((S)-1-(5-methyl-1H-tetrazol-1-yl)propan-2-yl)-3-propylhexadecahydro-1H-cyclopenta[a]phenanthren-3-ol], less than 100 nM. The value for `CCC[C@@]1(O)CC[C@H]2[C@H](CC[C@@H]3[C@@H]2CC[C@]2(C)[C@@H]([C@@H](C)Cn4nnc(C)n4)C(=O)C[C@@H]32)C1` [Example 364, (3R,5R,8R,9R,10S,13S,14S,17R)-3-hydroxy-13-methyl-17-((R)-1-(5-methyl-2H-tetrazol-2-yl)propan-2-yl)-3-propyltetradecahydro-1H-cyclopenta[a]phenanthren-16(2H)-one] was 100 to 1000 nM; that for `COC[C@@]1(O)CC[C@H]2[C@H](CC[C@@H]3[C@@H]2CC[C@]2(C)[C@@H](CCn4nnnc4C)CC[C@@H]32)C1` [Example 48, (3R,5R,8R,9R,10S,13R,14S,17R)-3-(methoxymethyl)-13-methyl-17-(2-(5-methyl-1H-tetrazol-1-yl)ethyl)hexadecahydro-1H-cyclopenta[a]phenanthren-3-ol] was less than 100 nM; that for `CCC[C@@]1(O)CC[C@H]2[C@H](CC[C@@H]3[C@@H]2CC[C@]2(C)[C@@H]([C@@H](C)Nc4ccc(-n5ccc(C)n5)nc4C)CC[C@@H]32)C1` [Example 91, (3R,5R,8R,9R,10S,13S,14S,17S)-13-methyl-17-((R)-1-((2-methyl-6-(3-methyl-1H-pyrazol-1-yl)pyridin-3-yl)amino)ethyl)-3-propylhexadecahydro-1H-cyclopenta[a]phenanthren-3-ol] was 100 to 1000 nM. To `CCOC[C@@]1(O)CC[C@H]2[C@H](CC[C@@H]3[C@@H]2CC[C@]2(C)[C@@H]([C@H](C)Cc4cccc(C#N)c4)CC[C@@H]32)C1` [Example 403, 3-((R)-2-((3R,5R,8R,9R,10S,13R,14S,17R)-3-(ethoxymethyl)-3-hydroxy-13-methylhexadecahydro-1H-cyclopenta[a]phenanthren-17-yl)propyl)benzonitrile] belongs 100 to 1000 nM. For `CCOC[C@@]1(O)CC[C@H]2[C@H](CC[C@@H]3[C@@H]2CC[C@]2(C)[C@@H]([C@@H](C)N(C)S(=O)(=O)c4cccc(C#N)c4)CC[C@@H]32)C1` [Example 70], the IC50 is less than 100 nM. `C[C@@H](NC(=O)c1ccc(F)cc1)[C@H]1CC[C@H]2[C@@H]3CC[C@@H]4C[C@](C)(O)CC[C@@H]4[C@H]3CC[C@]12C` [Example 116]: the IC50 is less than 100 nM. To `C[C@@H]([C@H]1CC[C@H]2[C@@H]3CC[C@@H]4C[C@](C)(O)CC[C@@H]4[C@H]3CC[C@]12C)N(C)c1ccccc1` [Example 39, (3R,5R,8R,9R,10S,13S,14S,17S)-3,13-dimethyl-17-((S)-1-(methyl(phenyl)amino)ethyl)hexadecahydro-1H-cyclopenta[a]phenanthren-3-ol] belongs 1000 to 10000 nM; to `C[C@H](Nc1cccnc1)[C@H]1CC[C@H]2[C@@H]3CC[C@@H]4C[C@](C)(O)CC[C@@H]4[C@H]3CC[C@]12C` [Example 204], 100 to 1000 nM. With `C[C@@]1(O)CC[C@H]2[C@H](CC[C@@H]3[C@@H]2CC[C@]2(C)[C@@H](CN4C[C@H](c5ccccc5)CC4=O)CC[C@@H]32)C1` [Example 10, (S)-1-(((3R,5R,8R,9R,10S,13S,14S,17S)-3-hydroxy-3,13-dimethylhexadecahydro-1H-cyclopenta[a]phenanthren-17-yl)methyl)-4-phenylpyrrolidin-2-one], the IC50 lay in the range of 100 to 1000 nM. For the compound `C[C@@H](NC(=O)c1cccc(C#N)c1)[C@H]1CC[C@H]2[C@@H]3CC[C@@H]4C[C@](C)(O)CC[C@@H]4[C@H]3CC[C@]12C` [Example 109], the concentration for half-maximal inhibition (IC50) was less than 100 nM. To `C[C@@H](Cn1nccn1)[C@H]1CC[C@H]2[C@@H]3CC[C@H]4C[C@](C)(O)CC[C@@H]4[C@H]3CC[C@]12C` [Example 57, (3R,5S,8R,9R,10S,13S,14S,17R)-17-((R)-1-(2H-1,2,3-triazol-2-yl)propan-2-yl)-3,13-dimethylhexadecahydro-1H-cyclopenta[a]phenanthren-3-ol] belongs 100 to 1000 nM.

These data come from patent US20230322846A9, “NEUROACTIVE STEROIDS AND THEIR METHODS OF USE” (SAGE THERAPEUTICS, INC., priority 2018, published 2023).
